Laboratory results published in patent publication US11988734B2, “Method and application for measuring the intracellular water transmembrane efflux rate, and measurement method and system for magnetic resonance imaging biomarker of glioma” (ZHEJIANG UNIVERSITY, priority 2022, dated 2024).
“And” between values parts separate entries of the source, which are not always exact repeats. Identical values can stand only once. “Also recorded” adds a separate entry of the source.

Legend:
[1] = system: U87MG cell line; assay: Water exchange DCE-MRI measurement of kio in U87MG cell line with AQP4 inhibition; assay type: cell-based; details: Phase I (adaptation period), 6.4 μM TGN020, n=6
Procedure: In order to obtain the cell samples for MRI, U87MG (0.5˜1×10^5) or C6 (1˜2×10^6) cell lines were first washed with DPBS, disassociated by adding 1 mL of 0.25% Trypsin-EDTA solution to 60 mm dish and incubating for 0.5 to 1.0 min, and then resuspended with 2 mL PBS (or PBS supplemented with 5 mM Gadoteridol). After centrifuging the cell sample with relative centrifugal force of 150 g at 4° C. for 5 min, the sample was resuspended in a custom MR compatible glass sample tube (diameter 5 mm×length 20 mm) with 250˜300 μL PBS (or PBS+5 mM Gadoteridol). We then centrifuged the MR tubes at 300 g at 4° C. for 2 min before carrying out MRI. […]
Water exchange DCE-MRI was performed with an inversion-recovery prepared turbo-spin-echo (IR-TSE) sequence and an extracellular Gd-based contrast agent, Gadoteridol (Prohance™ Bracco Diagnostics, Inc., Princeton, NJ). […] At [CA]=5 mM, IR-TSE were measured with 13 IR delays (10 ms, 30 ms, 50 ms, 70 ms, 90 ms, 150 ms, 200 ms, 400 ms, 600 ms, 800 ms, 1 s, 5 s, 5 s) with repetition time TR varying together (TR=IR delay+5 s) and single repetition on each IR delay. […]
where R1,sm and R1,lar are the apparently smaller and larger R1, respectively, and psm, is the apparent fraction of MR signals showing R1,sm. […] For each condition (e.g., C6 at TMZ 0, 3, and 7 day), at least three samples were measured with IR-TSE at [CA]=0 mM as the baseline data. […]

[2] = target: T1, AQP4 (Rattus norvegicus, UniProt P47863); assay: Pharmacological inhibition of AQP4 in subcutaneous rat glioma model (C6), in vivo water exchange DCE-MRI
T1 construct: C6 cell line was subcutaneously implanted into the right leg of Sprague Dawley (SD) rats to establish a glioma animal model; from tissue; host or cells: Subcutaneous C6 glioma tumour in Sprague Dawley rats (in vivo)
Procedure: All experimental protocols for animal studies were approved by the Animal Experimentation Committee of Zhejiang University. Adult (7˜8-week-old) male Sprague Dawley (SD) rats were obtained from the Laboratory Animal Center of Zhejiang University. During glioma cell introduction, rats were anesthetized with a mixture of 2% (v/v) isoflurane in air (R500IE, RWD Life Science Co., Ltd,), and then 100 μl PBS containing 5×10^6 C6 cells and 1% antibiotics (P/S) were slowly injected under the skin at the right leg. Seven to nine days after tumour implementation, the animals were taken for 7 T MRI test and the tumour was quickly removed after and fixed for IHC after MRI.
Here TGN020 was used to inhibit AQP4 in rat glioma model. For TGN020 group, each animal was treated with TGN020 (3 mg/kg, 4 ml/kg body weight) in the tail vein 15 minutes before water exchange DCE-MRI. In order to increase the solubility, before intravenous injection, TGN020 was repeatedly ultrasound and vortex at 37° C. to promote dissolution and dispersion in saline (0.9% NaCl). One day before TGN020 treatment, the same animal was treated with normal saline (4 ml/kg), and then water exchange DCE-MRI data collection was performed. In the control group, animals were treated with the same volume of normal saline on the first day and the second day. Here, the small volume infusion needs to be flushed after infusion to ensure the safety and treatment effect of rats.
In vivo water exchange DCE-MRI is achieved through clinical use of Gd-based CA (dimethylamine gadolinate, Guangzhou, China). In order to better estimate kio, the invention uses the method of two injections of CA, which improves the accuracy of kio estimation by 10 times compared with the traditional method of single injection of contrast agent. In addition, the steady-state multi-gradient echo (MGE) sequence is used to overcome the potential T2* artifacts caused by contrast agents. […] Finally, the fitting error of SS model is carefully analyzed to remove kio with large fitting error.

[3] = system: C6 cells; assay: Water exchange DCE-MRI measurement of intracellular water efflux rate constant kio in C6 cells; assay type: cell-based; details: for kio: 50 μM TMZ, control 10.9±0.7; for decrease of kio vs control: TMZ
Procedure: (§1) C6 cells were treated with TMZ (50 μM) and treated with 50 μM TMZ dissolved in 0.1% DMSO […] or 0.1% DMSO in complete culture medium. The magnetic resonance parameters kio and physiological information (cell morphology, AQP4 expression, cell activity and cell migration distance) were obtained on the third and seventh days of TMZ (50 μM) treatment.
In order to obtain the cell samples for MRI, U87MG (0.5˜1×10^5) or C6 (1˜2×10^6) cell lines were first washed with DPBS, disassociated by adding 1 mL of 0.25% Trypsin-EDTA solution to 60 mm dish and incubating for 0.5 to 1.0 min, and then resuspended with 2 mL PBS (or PBS supplemented with 5 mM Gadoteridol). After centrifuging the cell sample with relative centrifugal force of 150 g at 4° C. for 5 min, the sample was resuspended in a custom MR compatible glass sample tube (diameter 5 mm×length 20 mm) with 250˜300 μL PBS (or PBS+5 mM Gadoteridol). We then centrifuged the MR tubes at 300 g at 4° C. for 2 min before carrying out MRI. For AQP4 inhibition experiments, cells were pre-cultured with 6.4 μM TGN020 (Axon, CAS 51987-99-6) dissolved in PBS for 15 mins or 1 mM ouabain (Sigma, CAS 11018-89-6) for 15 mins, respectively; the PBS in the above steps was replaced with PBS+inhibitor.
The 0.5 T desktop MRI measurement system for cell culture in vitro (Pure Devices GmbH, Germany) includes: the MRI system installed on the anti-vibration platform and the autonomous nuclear magnetic tube containing live cell precipitation from the incubator, 5% CO2+95% O2 and PBS supernatant to ensure high survival rate, and the temperature monitoring optical fiber is installed. All MRI measurements were performed at room temperature (23.5+/−1° C.).
Water exchange DCE-MRI was performed with an inversion-recovery prepared turbo-spin-echo (IR-TSE) sequence and an extracellular Gd-based contrast agent, Gadoteridol (Prohance™ Bracco Diagnostics, Inc., Princeton, NJ). The following scan parameters were used in water exchange DCE-MRI: echo time (TE) 3 ms, turbo factor 16, FOV 12.8×12.8 mm^2, matrix size 32×32. Water exchange DCE-MRI was performed with two CA concentrations, 0 and 5 mM. At [CA]=5 mM, IR-TSE were measured with 13 IR delays (10 ms, 30 ms, 50 ms, 70 ms, 90 ms, 150 ms, 200 ms, 400 ms, 600 ms, 800 ms, 1 s, 5 s, 5 s) with repetition time TR varying together (TR=IR delay+5 s) and single repetition on each IR delay. At [CA]=0 mM, the longest IR delays were extended to 10 s with TR extended simultaneously (TR=IR delay+10 s) to guarantee full recovery of the longitudinal magnetization in each TR. The scan time for a single acquisition at [CA]=0 mM and 5 mM is 10 min and 5.5 min, respectively. Two acquisitions on [CA]=5 mM were acquired and averaged.
IR-TSE signal (M) at each IR delay was taken as the average signal of the cell pellet ROI. Then the signal was subtracted and normalized by the equilibrium magnetization (M0, taken as M with the longest IR delay). We define M as the normalized signal for future SS model analysis: M=(M−M0)/M0 (1)
A two-site-exchange (2SX) SS model was used here with details as described previously ^6. Briefly, the MR signal is considered as the sum of signals of two water sites—intra- and extracellular water, each site is assumed to have a similar longitude recovery rate R1, with pi and po as the mole fraction of water molecules in the intra- and extracellular space, respectively, and pi+po=1. Then the normalized IR-TSE signal M can be described with a biexponential function, M=psmexp(−tR1,sm)+(1−psm)exp(−tR1,lar) (2)
where R1,sm and R1,lar are the apparently smaller and larger R1, respectively, and psm, is the apparent fraction of MR signals showing R1,sm. The three parameters, R1,sm, R1,lar and psm, are determined by […] physical parameters including pi, the intracellular water efflux rate constant (kio), and the R1 of intracellular water (R1i), and the CA-dependent extracellular water R1 (R1o). […]

[4] = system: AQP4; assay: AQP4 expression (immunofluorescence, fluorescence intensity rfu) in C6 cell line during TMZ treatment; assay type: cell-based; details: C6 cells, 50 μM TMZ
Procedure: as §1
After the MRI tests, the cell line sample was immediately fixed by 4% paraformaldehyde (PFA) at room temperature for 20 min, then stored in 0.5% PFA (4° C.). For immunofluorescence (IF) testing, protocols following: samples were (1) blocked with 10% goat serum (Beyotime, CO265) for one hour at room temperature; (2) incubated with primary antibody overnight at 4° C. and the secondary antibody at room temperature for 1 h; (3) stained with DAPI (4′,6-diamidino-2-phenylindole, Sigma-Aldrich, 1:1000) at room temperature for 5 min; and (4) washed three times with PBS. […] Data were collected from two fluorescence channels: one in which DAPI was characterized with excitation/emission wavelengths 375 nm/435 to 485 nm and the other with either […] (excitation/emission 470 nm/514 to 567 nm) or green (excitation/emission 525 nm/565 to 650 nm) channels. Fluorescence images were taken from either a Fluorescence Inversion Microscope System (cellSensV1.13, Olympus, Japan) or a confocal laser scanning microscope (fv1200, Olympus, Japan).

[5] = system: C6 cells; assay: Slow cycling cell (SCC) fraction by OG cell tracer in C6 cells; assay type: cell-based; details: before TMZ 6.0 (±0.4)%
Text: The present invention uses the method of cell tracer to distinguish FCC and SCC. The OG (Oregon Green 488 Carboxylic Acid Diacetate, Succinimidyl Ester) and CTV (CellTrace™ Violet reagent, ThermoFisher scientific, Invitrogen C34557) were used to distinguish FCCs (low OG or CTV intensity) and SCCs (high OG or CTV intensity, e.g., the CTV intensity>10^4) in C6 cell lines and human glioma primary cell culture, respectively. Populations of FCCs and SCCs were identified and isolated in cell cultures based on their capacity to retain OG or CTV. Briefly, the cells were first suspended in PBS containing 25 μM OG and incubated in the dark at 37° C. for 10 min. After incubation, cell samples were washed in DMEM to remove residual dye and then returned to the culturing medium for three days until imaging. Before fluorescence imaging, samples were fixed in 4% PFA for 30 min and then stained with DAPI. The fraction of SCCs was defined as the fraction of OG positive cells in the DAPI positive cells. For primary human glioma primary cell cultures, the cells were stained with 5 μM CTV (the same methods as OG) for three days. Then, the cells fluorescence intensity statistics and counts were measured by a Fluorescence Activating Cell Sorter System (FACS) (LSRFortessa X-20, BD, USA).

T1 sequence (P47863 whole entry): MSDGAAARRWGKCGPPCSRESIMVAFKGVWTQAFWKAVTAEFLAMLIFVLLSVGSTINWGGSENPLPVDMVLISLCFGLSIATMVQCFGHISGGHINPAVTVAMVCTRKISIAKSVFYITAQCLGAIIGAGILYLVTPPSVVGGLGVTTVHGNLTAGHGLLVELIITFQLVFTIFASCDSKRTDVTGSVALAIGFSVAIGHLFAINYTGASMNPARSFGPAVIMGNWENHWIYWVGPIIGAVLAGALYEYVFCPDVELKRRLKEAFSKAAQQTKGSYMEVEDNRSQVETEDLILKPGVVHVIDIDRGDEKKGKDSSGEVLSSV

Row | Compound | effect of AQP4 inhibition on kio [1] | average kio of the whole tumor ([2]; TGN020 3 mg/kg tail vein 15 min before DCE-MRI, n=9, saline 6.3±0.6, 3 mg/kg) | decrease of average kio of the whole tumor ([2]; TGN020 3 mg/kg vs saline in same animal, n=9, p=0.0246) | average K^trans of the whole tumor ([2]; TGN020 3 mg/kg, saline 0.060±0.015) | effect of AQP4 inhibition on kio ([3]; C6 cells on 7th day of TMZ treatment, 6.4 μM TGN020) | decrease of AQP4 expression level, fluorescence intensity (rfu) ([4]; seventh day of treatment) | decrease of AQP4 expression level, fluorescence intensity (rfu) ([4]; third day of treatment) | kio ([3]; C6 cells, seventh day of treatment, n=7) | kio ([3]; C6 cells, third day of treatment, n=6) | decrease of kio (absolute) ([3]; C6 cells, 7th day of TMZ treatment vs control) | decrease of kio vs control ([3]; C6 cells, seventh day) | decrease of kio vs control ([3]; C6 cells, third day) | proportion of SCC (OG+) ([5]; seventh day of TMZ treatment) | proportion of SCC (OG+) ([5]; third day of TMZ treatment)
1 | O=C(Nc1nncs1)c1cccnc1 [TGN020] | will not lead to a significant decrease in kio; also recorded: will not lead to further reduction of kio | 5 ± 0.7 s⁻¹ and 3.5 ± 0.7 s⁻¹ | 43% | 0.045 ± 0.024 min⁻¹ | could not further reduce kio; also recorded: did not lead to further reduction of kio | – | – | – | – | – | – | – | – | –
2 | Cn1nnc2c(C(N)=O)ncn2c1=O [TMZ, temozolomide] | – | – | – | – | – | 85.9% | 42.5% | 5.8 ± 0.2 s⁻¹ | 6.7 ± 0.8 s⁻¹ | 4.9 s⁻¹ | 45.5% | 37.3% | 28.9 (±0.3) % | 16.0 (±0.1) %
